The target of one experiment is T1, TAK1-TAB1 (Homo sapiens, UniProt O43318).
T1 sequence (O43318 with tags, fused parts or gaps limits assumed): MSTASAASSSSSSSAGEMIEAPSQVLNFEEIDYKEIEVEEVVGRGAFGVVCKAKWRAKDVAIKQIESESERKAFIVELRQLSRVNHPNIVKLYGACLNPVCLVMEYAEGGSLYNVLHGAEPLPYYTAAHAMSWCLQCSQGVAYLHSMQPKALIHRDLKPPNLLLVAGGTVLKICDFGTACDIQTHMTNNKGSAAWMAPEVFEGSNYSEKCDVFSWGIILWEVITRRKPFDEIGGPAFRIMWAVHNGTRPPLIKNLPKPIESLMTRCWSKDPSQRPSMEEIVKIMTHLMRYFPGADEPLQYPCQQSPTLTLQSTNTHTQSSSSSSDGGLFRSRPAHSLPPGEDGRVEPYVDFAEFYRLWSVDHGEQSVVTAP
In words: TAK1-TAB1 binding inhibitory potency (LanthaScreen competitive binding assay, kinase tracer-236). The following applies: 10 nM TAK1-TAB1, 100 nM kinase tracer-236; read-out: TAK1-Tab Inhibition IC50. The procedure, abridged:
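Compounds were tested for TAK1-TAB1 binding in a 384-well LanthaScreen competitive FRET assay. TAK1-TAB1 (10 nM) and Eu-anti-his antibody (2 nM) were preincubated with compound for two hours before adding 100 nM Alexa Fluor 647 kinase tracer-236. The buffer was 20 mM HEPES pH 7.5, 10 mM MgCl2, 0.01% BSA, 0.0005% Tween-20 and 2% DMSO. IC50 came from 4-parameter logistic fits of emission ratio over an 11-point series from 20 μM to 0.34 nM.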
On the technique in general: In TR-FRET formats the signal depends on donor and acceptor labels being close together.

For experiment [1], the system named is IL-6 Production in Human Peripheral Blood Mononuclear Cells (PBMC). In words: LPS stimulated IL-6 production in PBMC cells. The following applies: read-out: IL-6 Production Inhibition IC50. It counts as cell-based. As for the experimental part:
LPS Stimulated IL-6 Production in PBMC Cells:
Lipopolysaccharide (LPS) stimulated IL-6 Production in Human Peripheral Blood Mononuclear Cells (PBMC): The cellular efficacy of compound candidates is determined using peripheral blood mononuclear cells purified from human whole blood, based upon the methods of Burnette et al. (2009) Pharmacology, 84:42-60. PBMC produce a number of cytokines (IL6, IL8, IL1β and TNFα) in response to stimulation with LPS. To induce the production of inflammatory mediators, PBMC are plated at a final concentration of 2×10^5 cells/well in a 96 well flat bottom plate in DMEM medium supplemented with 10% fetal bovine serum, 100 units/ml penicillin and 100 μg/ml streptomycin (Gibco BRL Life Technologies). Cells are treated with or without inhibitors for 1-3 hrs then stimulated with 100 ng/ml LPS (serotype 011:B4, Sigma) for an additional 3 hrs at 37° C. with 5% CO2. The supernatants are removed and stored at −20° C. until they are to be assayed. The levels of inflammatory mediators are determined using commercial MSD cytokine kits (Meso Scale Discovery) as per the manufacturer's instructions. Standard curves are based on 7 steps of 4× serial dilutions, with a wide dynamic range of 10000 pg/ml to 2.4 pg/ml, and a blank. Lower limit of detection (LLOD) is calculated at the commonly used 3× the standard deviation of the blank.

Molecules are shown by their SMILES.

In general, IC50 refers to the concentration that inhibits the measured activity by half.

Take `CC(C)(C)OC(=O)NC1CN(c2cnc3[nH]cc(/C=C/C(N)=O)c3c2)C1` [Example 269, (E)-tert-butyl(1-(3-(3-amino-3-oxoprop-1-en-1-yl)-1H-pyrrolo[2,3-b]pyridin-5-yl)azetidin-3-yl)carbamate]: the concentration for half-maximal inhibition (IC50) (at TAK1-TAB1; in experiment [1]) was ≤ 1000 nM in each case.
With `NC(=O)/C=C/c1c[nH]c2ncc(-c3ccc(C(=O)NC4CC4)cc3)cc12` [Example 270, (E)-4-(3-(3-amino-3-oxoprop-1-en-1-yl)-1H-pyrrolo[2,3-b]pyridin-5-yl)-N-cyclopropyl-benzamide], the IC50 was ≤ 1000 nM at TAK1-TAB1 and > 1000 nM in experiment [1].
Take `CCOCCN1CCN(c2cnc3[nH]cc(/C=C/C(N)=O)c3c2)CC1` [Example 271, (E)-3-(5-(4-(2-ethoxyethyl)piperazin-1-yl)-1H-pyrrolo[2,3-b]pyridin-3-yl)acrylamide]: the IC50 (on TAK1-TAB1; in experiment [1]) was ≤ 1000 nM each time.
`CC(C)Oc1cc(-c2cnc3[nH]cc(/C=C/C(N)=O)c3c2)cc(C(F)(F)F)n1` [Example 272, (E)-3-(5-(2-isopropoxy-6-(trifluoromethyl)pyridin-4-yl)-1H-pyrrolo[2,3-b]pyridin-3-yl)acrylamide]: the IC50 (at TAK1-TAB1; in experiment [1]) was ≤ 1000 nM in each case.
For `CN1CCN(c2cc(-c3cnc4[nH]cc(/C=C/C(N)=O)c4c3)ccn2)CC1` [Example 273, (E)-3-(5-(2-(4-methylpiperazin-1-yl)pyridin-4-yl)-1H-pyrrolo[2,3-b]pyridin-3-yl)acrylamide], the IC50 (on TAK1-TAB1; in experiment [1]) was ≤ 1000 nM throughout.
Regarding `NC(=O)/C=C/c1c[nH]c2ncc(Cc3ccc(F)cc3)cc12` [Example 274, (E)-3-(5-(4-fluorobenzyl)-1H-pyrrolo[2,3-b]pyridin-3-yl)acrylamide], the IC50 (at TAK1-TAB1; in experiment [1]) was ≤ 1000 nM in each case.
In the case of `NC(=O)/C=C/c1c[nH]c2ncc(Cc3ccc(F)cc3F)cc12` [Example 275, (E)-3-(5-(2,4-difluorobenzyl)-1H-pyrrolo[2,3-b]pyridin-3-yl)acrylamide], the IC50 (at TAK1-TAB1; in experiment [1]) was ≤ 1000 nM throughout.
As to `C[C@H](O)C(=O)N1CCN(c2cnc3[nH]cc(/C=C/C(N)=O)c3c2)CC1` [Example 276, (S,E)-3-(5-(4-(2-hydroxypropanoyl)piperazin-1-yl)-1H-pyrrolo[2,3-b]pyridin-3-yl)acrylamide], the IC50 is ≤ 1000 nM at TAK1-TAB1 and > 1000 nM in experiment [1].
For `C[C@@H](O)C(=O)N1CCN(c2cnc3[nH]cc(/C=C/C(N)=O)c3c2)CC1` [Example 277, (R,E)-3-(5-(4-(2-hydroxypropanoyl)piperazin-1-yl)-1H-pyrrolo[2,3-b]pyridine-3-yl)acrylamide], the IC50 is ≤ 1000 nM at TAK1-TAB1 and > 1000 nM in experiment [1].
With `NC(=O)/C=C/c1c[nH]c2ncc(N3CCN(C(=O)C4CCCC4)CC3)cc12` [Example 278, (E)-3-(5-(4-(cyclopentane-carbonyl)piperazin-1-yl)-1H-pyrrolo[2,3-b]pyridin-3-yl)acrylamide], the values for the IC50 (at TAK1-TAB1; in experiment [1]) were ≤ 1000 nM and > 1000 nM, respectively.
In the case of `N#C/C=C/c1c[nH]c2ncc(N3CCN(C(=O)c4ccccc4)CC3)cc12` [Example 279, (E)-3-(5-(4-benzoylpiperazin-1-yl)-1H-pyrrolo[2,3-b]pyridin-3-yl)acrylonitrile], the IC50 is ≤ 1000 nM on TAK1-TAB1 and > 1000 nM in experiment [1].
For the compound `CC(C)NC(=O)c1ccc(-c2cnc3[nH]cc(/C=C/C(N)=O)c3c2)cn1` [Example 280, (E)-5-(3-(3-amino-3-oxoprop-1-en-1-yl)-1H-pyrrolo[2,3-b]pyridin-5-yl)-N-isopropyl-picolinamide], the IC50 (at TAK1-TAB1; in experiment [1]) was ≤ 1000 nM in each case.
With `NC(=O)/C=C/c1c[nH]c2ncc(-c3ccc(C(=O)N4CCCC4)nc3)cc12` [Example 281, (E)-3-(5-(6-(pyrrolidine-1-carbonyl)pyridin-3-yl)-1H-pyrrolo[2,3-b]pyridin-3-yl)acrylamide], the values for the IC50 (at TAK1-TAB1; in experiment [1]) were ≤ 1000 nM and > 1000 nM, respectively.
As for `CC(C)(C)C(=O)NC1CN(c2cnc3[nH]cc(/C=C/C(N)=O)c3c2)C1` [Example 282, (E)-3-(5-(3-pivalamidoazetidin-1-yl)-1H-pyrrolo[2,3-b]pyridin-3-yl)acrylamide], the concentration for half-maximal inhibition (IC50) (on TAK1-TAB1; in experiment [1]) was > 1000 nM throughout.
With `CC(C)C(=O)NC1CN(c2cnc3[nH]cc(/C=C/C(N)=O)c3c2)C1` [Example 283, (E)-3-(5-(3-isobuty-ramidoazetidin-1-yl)-1H-pyrrolo[2,3-b]pyridin-3-yl)acrylamide], the IC50 (on TAK1-TAB1; in experiment [1]) was ≤ 1000 nM each time.
With `CC(C)Oc1ccc(-c2cnc3[nH]cc(/C=C/C(N)=O)c3n2)cn1` [Example 284, (E)-3-(2-(6-isopropoxypyridin-3-yl)-5H-pyrrolo[2,3-b]pyrazin-7-yl)acrylamide], the concentration for half-maximal inhibition (IC50) (at TAK1-TAB1; in experiment [1]) was ≤ 1000 nM throughout.
Regarding `N#Cc1ccc(-c2cnc3[nH]cc(/C=C/C(N)=O)c3n2)cn1` [Example 285, (E)-3-(2-(6-cyanopyridin-3-yl)-5H-pyrrolo[2,3-b]pyrazin-7-yl)acrylamide], the IC50 (at TAK1-TAB1; in experiment [1]) was ≤ 1000 nM throughout.
As for `NC(=O)/C=C/c1c[nH]c2ncc(-c3cncnc3)cc12` [Example 286, (E)-3-(5-(pyrimidin-5-yl)-1H-pyrrolo[2,3-b]pyridin-3-yl)acrylamide], the IC50 at TAK1-TAB1 was ≤ 1000 nM; in experiment [1], > 1000 nM.
As to `CSc1ncc(-c2cnc3[nH]cc(/C=C/C(N)=O)c3c2)cn1` [Example 287, (E)-3-(5-(2-(methylthio)pyrimidin-5-yl)-1H-pyrrolo[2,3-b]pyridin-3-yl)acrylamide], the IC50 (on TAK1-TAB1; in experiment [1]) was ≤ 1000 nM throughout.
As for `NC(=O)/C=C/c1c[nH]c2ncc(N3CCN(C(=O)c4ncc(F)cc4F)CC3)cc12` [Example 288, (E)-3-(5-(4-(3,5-difluoropicolinoyl)piperazin-1-yl)-1H-pyrrolo[2,3-b]pyridin-3-yl)acrylamide], the IC50 on TAK1-TAB1 is ≤ 1000 nM; in experiment [1], > 1000 nM.
With `CC(C)(O)CN1CCN(c2cnc3[nH]cc(/C=C/C(N)=O)c3c2)CC1` [Example 289, (E)-3-(5-(4-(2-hydroxy-2-methylpropyl)piperazin-1-yl)-1H-pyrrolo[2,3-b]pyridin-3-yl)acrylamide], the IC50 at TAK1-TAB1 is ≤ 1000 nM; in experiment [1], > 1000 nM.
For `CC(C)(O)COc1ccc(-c2cnc3[nH]cc(/C=C/C(N)=O)c3c2)cn1` [Example 291, (E)-3-(5-(6-(2-hydroxy-2-methylpropoxy)pyridin-3-yl)-1H-pyrrolo[2,3-b]pyridin-3-yl)acrylamide], the IC50 (on TAK1-TAB1; in experiment [1]) was ≤ 1000 nM each time.
As for `CC(C)(O)Cn1cc(-c2cnc3[nH]cc(/C=C/C(N)=O)c3c2)ccc1=O` [Example 292, (E) -3-(5-(1-(2-hydroxy-2-methylpropyl)-6-oxo-1,6-dihydropyridin-3-yl)-1H-pyrrolo[2,3-b]pyridin-3-yl)acrylamide], the results for the IC50 (at TAK1-TAB1; in experiment [1]) were ≤ 1000 nM and > 1000 nM, respectively.
As to `CC(=O)O[C@@H](C)CNC(=O)c1ccc(-c2cnc3[nH]cc(/C=C/C(N)=O)c3c2)cc1` [Example 293, (S,E)-1-(4-(3-(3-amino-3-oxoprop-1-en-1-yl)-1H-pyrrolo[2,3-b]pyridin-5-yl)benzamido) propan-2-yl acetate], the IC50 at TAK1-TAB1 was ≤ 1000 nM; in experiment [1], > 1000 nM.
As to `C[C@@H](O)CNC(=O)c1ccc(-c2cnc3[nH]cc(/C=C/C(N)=O)c3c2)cc1` [Example 294, (R,E)-4-(3-(3-amino-3-oxoprop-1-en-1-yl)-1H-pyrrolo[2,3-b]pyridin-5-yl)-N-(2-hydroxypropyl) benzamide], the figures for the IC50 (at TAK1-TAB1; in experiment [1]) were ≤ 1000 nM and > 1000 nM, respectively.
In the case of `CC(C)NC(=O)c1ccc(-c2cnc3[nH]cc(/C=C/C(N)=O)c3c2)nc1` [Example 295, (E)-6-(3-(3-amino-3-oxoprop-1-en-1-yl)-1H-pyrrolo[2,3-b]pyridin-5-yl)-N-isopropyl-nicotinamide], the half-maximal inhibitory concentration (IC50) on TAK1-TAB1 is ≤ 1000 nM; in experiment [1] it was > 1000 nM.

For the origin of these results see US9499551B2, “Substituted pyrrolo[2,3-b]pyridines for treating cancer or inflammatory diseases” (Confluence Life Sciences, Inc., priority 2014, dated 2016).
